In ChEMBL document CHEMBL5346941, “Design, synthesis and evaluation of novel monoamine oxidase B (MAO-B) inhibitors with improved pharmacokinetic properties for Parkinson's disease” (Eur J Med Chem, 2023):
The source made the active and inactive calls. The rule behind the calls is not given here.

Key:
[1] = Volume of distribution at steady state in fasted ICR mouse at 2 mg/kg, iv measured for 24 hrs; assay type: ADME, organism-based; conditions: in vivo, read-out: Vdss
[2] = molecular target: T1, CYP2B6 (Homo sapiens, UniProt P20813); assay: Inhibition of CYP2B6 in human liver microsomes using bupropion as substrate at 10 uM incubated for 10 mins in presence of NADPH by LC-MS/MS analysis relative to control; assay type: ADME, Microsome; conditions: probe bupropion
T1 sequence (P20813 whole entry): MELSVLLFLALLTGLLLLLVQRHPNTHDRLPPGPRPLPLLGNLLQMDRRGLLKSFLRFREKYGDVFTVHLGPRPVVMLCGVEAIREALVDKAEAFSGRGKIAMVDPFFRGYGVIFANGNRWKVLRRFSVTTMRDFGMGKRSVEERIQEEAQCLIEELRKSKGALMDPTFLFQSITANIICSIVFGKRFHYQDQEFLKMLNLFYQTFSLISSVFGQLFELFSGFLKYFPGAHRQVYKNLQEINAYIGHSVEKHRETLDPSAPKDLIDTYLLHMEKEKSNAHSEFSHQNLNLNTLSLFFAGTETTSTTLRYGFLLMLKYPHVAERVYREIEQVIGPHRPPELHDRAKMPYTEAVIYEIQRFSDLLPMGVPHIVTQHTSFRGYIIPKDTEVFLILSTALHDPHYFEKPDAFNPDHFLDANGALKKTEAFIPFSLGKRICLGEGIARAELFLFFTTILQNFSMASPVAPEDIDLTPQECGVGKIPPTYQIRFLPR

[3] = Apparent permeability across basolateral to apical side in MDCKII-MDR1 cells at 10 uM incubated for 30 mins by LC-MS/MS analysis; assay type: ADME, cell-based, Canis lupus familiaris; conditions: dog, MDCK-MDR1
[4] = Protein binding in rat plasma at 1 uM incubated for 5 hrs by LC-MS/MS based rapid equilibrium dialysis method; assay type: ADME, cell-free; conditions: read-out: PPB (converted)
[5] = Elimination half life in fasted Sprague-Dawley rat at 1 mg/kg, iv measured for 24 hrs; assay type: ADME, organism-based; conditions: in vivo, read-out: beta t1/2 (converted)
[6] = Metabolic stability in human liver microsomes assessed as intrinsic clearance at 1 uM incubated for 60 mins in presence of NADPH by LC-MS/MS analysis; assay type: ADME, Microsome; conditions: read-out: CLH
[7] = Metabolic stability in monkey liver microsomes assessed as half life at 1 uM incubated for 60 mins in presence of NADPH by LC-MS/MS analysis; assay type: ADME, Macaca mulatta, Microsome; conditions: rhesus monkey
[8] = Elimination half life in fasted ICR mouse at 2 mg/kg, iv measured for 24 hrs; assay type: ADME, organism-based; conditions: in vivo, read-out: beta t1/2 (converted)
[9] = molecular target: T2, CYP1A2 (Homo sapiens, UniProt P05177); assay: Inhibition of CYP1A2 in human liver microsomes using ethoxyresorufin as substrate at 10 uM incubated for 10 mins in presence of NADPH by LC-MS/MS analysis relative to control; assay type: ADME, Microsome; conditions: probe ethoxyresorufin
T2 sequence (P05177 whole entry): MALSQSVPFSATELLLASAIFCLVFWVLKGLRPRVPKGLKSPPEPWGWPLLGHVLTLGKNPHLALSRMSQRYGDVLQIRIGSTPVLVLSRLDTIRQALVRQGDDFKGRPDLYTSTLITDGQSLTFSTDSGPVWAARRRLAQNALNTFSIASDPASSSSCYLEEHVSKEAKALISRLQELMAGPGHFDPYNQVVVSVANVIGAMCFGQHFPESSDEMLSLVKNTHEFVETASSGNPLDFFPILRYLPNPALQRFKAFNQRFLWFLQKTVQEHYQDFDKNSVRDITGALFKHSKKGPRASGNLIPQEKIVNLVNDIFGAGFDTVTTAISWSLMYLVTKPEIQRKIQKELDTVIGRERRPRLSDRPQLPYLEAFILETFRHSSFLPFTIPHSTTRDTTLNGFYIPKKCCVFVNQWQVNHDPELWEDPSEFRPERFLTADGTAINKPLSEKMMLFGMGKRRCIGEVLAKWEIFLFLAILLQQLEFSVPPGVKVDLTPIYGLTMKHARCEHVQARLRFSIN

[10] = molecular target: CYP2D6 (Homo sapiens, UniProt P10635); assay: Inhibition of CYP2D6 in human liver microsomes using propranolol as substrate at 10 uM incubated for 10 mins in presence of NADPH by LC-MS/MS analysis relative to control; assay type: ADME, Microsome; conditions: probe propranolol
[11] = Metabolic stability in monkey liver microsomes assessed as intrinsic clearance at 1 uM incubated for 60 mins in presence of NADPH by LC-MS/MS analysis; assay type: ADME, Macaca mulatta, Microsome; conditions: rhesus monkey, read-out: CLH
[12] = Clearance in fasted Sprague-Dawley rat at 1 mg/kg, iv measured for 24 hrs; assay type: ADME, organism-based; conditions: in vivo
[13] = Protein binding in mouse plasma at 1 uM incubated for 5 hrs by LC-MS/MS based rapid equilibrium dialysis method; assay type: ADME, cell-free; conditions: read-out: PPB (converted)
[14] = Clearance in fasted ICR mouse at 2 mg/kg, iv measured for 24 hrs; assay type: ADME, organism-based; conditions: in vivo
[15] = Metabolic stability in human liver microsomes assessed as half life at 1 uM incubated for 60 mins in presence of NADPH by LC-MS/MS analysis; assay type: ADME, Microsome
[16] = Cmax in fasted Sprague-Dawley rat at 5 mg/kg, IG measured for 24 hrs; assay type: ADME, organism-based; parameters: dose 5 mg/kg, time 24 hrs, route ig; conditions: in vivo, po
[17] = test system: Mus musculus; assay: In vivo inhibition of MAO-B in ICR mouse assessed as reduction in enzyme activity in brain at 2 mg/kg, ip administered once for 30 to 60 mins by amplex red based assay; assay type: functional, organism-based; conditions: time 30-60 min
[18] = AUC (0 to t) in fasted ICR mouse at 5 mg/kg, IG measured for 24 hrs; assay type: ADME, organism-based; parameters: dose 5 mg/kg, time 24 hrs, route ig; conditions: in vivo, po
[19] = molecular target: CYP2C9 (Homo sapiens, UniProt P11712); assay: Inhibition of CYP2C9 in human liver microsomes using diclofenac as substrate at 10 uM incubated for 10 mins in presence of NADPH by LC-MS/MS analysis relative to control; assay type: ADME, Microsome; conditions: probe diclofenac
[20] = test system: Mus musculus; assay: In vivo inhibition of MAO-B in ICR mouse assessed as reduction in enzyme activity in brain administered once intraperitoneally for 30 to 60 mins by amplex red based assay; assay type: functional, organism-based; conditions: dose 0.08-1.28 mg/kg, route ip, time 30-60 min

Chain of CYP2D6 (P10635 whole entry): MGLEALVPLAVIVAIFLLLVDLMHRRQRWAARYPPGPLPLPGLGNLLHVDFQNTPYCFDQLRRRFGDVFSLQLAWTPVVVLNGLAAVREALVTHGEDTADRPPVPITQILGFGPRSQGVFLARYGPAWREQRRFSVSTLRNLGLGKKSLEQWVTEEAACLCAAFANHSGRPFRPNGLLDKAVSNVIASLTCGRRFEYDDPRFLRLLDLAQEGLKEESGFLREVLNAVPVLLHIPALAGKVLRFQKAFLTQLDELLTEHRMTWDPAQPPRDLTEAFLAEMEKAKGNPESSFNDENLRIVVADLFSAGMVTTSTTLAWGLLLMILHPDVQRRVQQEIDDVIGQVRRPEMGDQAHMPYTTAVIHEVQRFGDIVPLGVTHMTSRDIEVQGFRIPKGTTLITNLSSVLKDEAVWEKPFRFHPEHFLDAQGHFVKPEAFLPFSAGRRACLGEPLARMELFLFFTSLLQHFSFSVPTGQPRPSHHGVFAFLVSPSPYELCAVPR
Chain of CYP2C9 (P11712 whole entry): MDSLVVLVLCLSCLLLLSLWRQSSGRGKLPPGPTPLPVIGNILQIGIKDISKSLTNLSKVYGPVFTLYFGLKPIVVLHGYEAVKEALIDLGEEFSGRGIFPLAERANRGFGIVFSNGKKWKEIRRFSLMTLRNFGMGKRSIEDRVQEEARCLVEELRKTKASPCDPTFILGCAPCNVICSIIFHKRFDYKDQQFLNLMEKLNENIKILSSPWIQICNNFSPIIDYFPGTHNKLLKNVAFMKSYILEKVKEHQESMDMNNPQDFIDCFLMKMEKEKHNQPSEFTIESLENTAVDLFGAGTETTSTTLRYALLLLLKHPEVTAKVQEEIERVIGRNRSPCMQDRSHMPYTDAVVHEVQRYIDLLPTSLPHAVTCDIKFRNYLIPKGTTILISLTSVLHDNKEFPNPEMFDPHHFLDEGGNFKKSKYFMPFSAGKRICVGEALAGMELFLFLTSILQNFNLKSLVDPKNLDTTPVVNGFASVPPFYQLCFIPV

NC(=O)[C@@H]1C[C@H](F)CN1Cc1ccc2oc(-c3ccc(F)cc3)cc2c1
Vd [1]: 2.72 L/kg
inhibition at 10 min, 10 µM [2]: 41.2%
Papp B→A at 0.5 h, 10 µM [3]: 2.97 ×10⁻⁶ cm/s
fraction unbound at 5 h, 1 µM [4]: 0.0062
half-life [5]: 0.74 h
CLint scaled at 1 µM [6]: 2.5 mL/min/kg
half-life at 1 µM [7]: 5.63 h
half-life [8]: 3.37 h
inhibition at 10 min, 10 µM [9]: 32.6%
inhibition at 10 min, 10 µM [10]: -3.37%
CLint scaled at 1 µM [11]: 4.1 mL/min/kg
clearance [12]: 54.2 mL/min/kg
fraction unbound at 5 h, 1 µM [13]: 0.0066
clearance [14]: 11 mL/min/kg
half-life at 1 µM [15]: 10.4 h
Cmax [16]: 436 ng/mL
inhibition [17]: Active
AUC(0-t) at 24 h [18]: 7950 ng·h/mL
inhibition at 10 min, 10 µM [19]: 8.05%
inhibition [20]: Active
